Among the data in publication PMC12102023 (Saudi Pharmaceutical Journal : SPJ, 2025) are IC50 values, retold here.

For experiment [1], the system named is HCT116 (colorectal carcinoma). The experiment is described as follows: MTT antiproliferation assay, HCT116. Conditions: Homo sapiens, HCT-116, read-out: IC50 (µM) HCT- 116. It counts as cell-based. On the technique in general: Formazan colour is commonly taken as a measure of viable cells.
Experiment [2] relates to HepG2 (hepatocellular carcinoma). The experiment is described as follows: MTT antiproliferation assay, HepG2. It counts as cell-based, human.
Experiment [3] deals with HeLa (cervical epithelioid carcinoma). The experiment is described as follows: MTT antiproliferation assay, HeLa. Conditions: Homo sapiens, HeLa, read-out: IC50 (µM) Hela, MTT assay, HeLa cells. It counts as cell-based, human.
Experiment [4] has as its system MCF7 (mammary gland breast cancer). The experiment is described as follows: MTT antiproliferation assay, MCF7. Conditions: Homo sapiens, MCF7, read-out: IC50 (µM) MCF- 7. It counts as cell-based.
In experiment [5] the test system is WI- 38 (embryonic lung fibroblasts). The experiment is described as follows: MTT assay, WI-38 fibroblasts. It counts as cell-based. Conditions: Homo sapiens, WI-38, read-out: IC50 (µM) WI- 38.
A further experiment deals with CDK9 (Homo sapiens, UniProt P50750). The experiment is described as follows: biochemical.
Sequence of CDK9 (P50750 whole entry): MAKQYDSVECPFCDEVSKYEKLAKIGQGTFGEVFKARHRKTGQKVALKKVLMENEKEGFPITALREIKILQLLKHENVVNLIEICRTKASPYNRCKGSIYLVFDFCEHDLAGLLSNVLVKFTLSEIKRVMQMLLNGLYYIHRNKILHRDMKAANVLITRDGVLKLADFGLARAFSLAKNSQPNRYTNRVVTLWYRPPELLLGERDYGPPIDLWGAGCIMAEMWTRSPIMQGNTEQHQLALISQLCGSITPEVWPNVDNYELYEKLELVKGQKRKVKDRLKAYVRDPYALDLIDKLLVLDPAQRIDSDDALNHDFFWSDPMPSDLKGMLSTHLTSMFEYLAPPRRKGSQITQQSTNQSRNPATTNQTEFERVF
Sequence of CDK9 (O60563 whole entry partner): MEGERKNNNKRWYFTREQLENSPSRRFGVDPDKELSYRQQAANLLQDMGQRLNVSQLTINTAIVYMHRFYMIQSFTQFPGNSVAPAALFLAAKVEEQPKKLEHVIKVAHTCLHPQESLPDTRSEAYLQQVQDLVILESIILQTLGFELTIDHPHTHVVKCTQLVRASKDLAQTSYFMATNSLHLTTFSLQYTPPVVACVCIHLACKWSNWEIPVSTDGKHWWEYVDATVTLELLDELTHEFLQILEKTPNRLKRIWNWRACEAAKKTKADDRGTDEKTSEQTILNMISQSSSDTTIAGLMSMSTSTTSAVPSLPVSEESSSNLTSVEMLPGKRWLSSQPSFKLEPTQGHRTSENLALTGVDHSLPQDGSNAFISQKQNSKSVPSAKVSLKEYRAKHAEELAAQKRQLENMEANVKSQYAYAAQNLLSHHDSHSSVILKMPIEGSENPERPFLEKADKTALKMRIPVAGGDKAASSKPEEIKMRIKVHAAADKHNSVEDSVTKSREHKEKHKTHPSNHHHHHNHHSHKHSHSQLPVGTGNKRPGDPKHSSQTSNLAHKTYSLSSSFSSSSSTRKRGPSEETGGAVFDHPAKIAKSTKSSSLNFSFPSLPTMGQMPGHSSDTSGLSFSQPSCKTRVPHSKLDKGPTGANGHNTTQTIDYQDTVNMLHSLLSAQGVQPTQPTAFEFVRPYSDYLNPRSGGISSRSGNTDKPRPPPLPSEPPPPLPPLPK
The target of a further experiment is CDK12 (Homo sapiens, UniProt Q9NYV4). The experiment is described as follows: CDK12 inhibition assay. It counts as biochemical.
Sequence of CDK12 (Q9NYV4 whole entry): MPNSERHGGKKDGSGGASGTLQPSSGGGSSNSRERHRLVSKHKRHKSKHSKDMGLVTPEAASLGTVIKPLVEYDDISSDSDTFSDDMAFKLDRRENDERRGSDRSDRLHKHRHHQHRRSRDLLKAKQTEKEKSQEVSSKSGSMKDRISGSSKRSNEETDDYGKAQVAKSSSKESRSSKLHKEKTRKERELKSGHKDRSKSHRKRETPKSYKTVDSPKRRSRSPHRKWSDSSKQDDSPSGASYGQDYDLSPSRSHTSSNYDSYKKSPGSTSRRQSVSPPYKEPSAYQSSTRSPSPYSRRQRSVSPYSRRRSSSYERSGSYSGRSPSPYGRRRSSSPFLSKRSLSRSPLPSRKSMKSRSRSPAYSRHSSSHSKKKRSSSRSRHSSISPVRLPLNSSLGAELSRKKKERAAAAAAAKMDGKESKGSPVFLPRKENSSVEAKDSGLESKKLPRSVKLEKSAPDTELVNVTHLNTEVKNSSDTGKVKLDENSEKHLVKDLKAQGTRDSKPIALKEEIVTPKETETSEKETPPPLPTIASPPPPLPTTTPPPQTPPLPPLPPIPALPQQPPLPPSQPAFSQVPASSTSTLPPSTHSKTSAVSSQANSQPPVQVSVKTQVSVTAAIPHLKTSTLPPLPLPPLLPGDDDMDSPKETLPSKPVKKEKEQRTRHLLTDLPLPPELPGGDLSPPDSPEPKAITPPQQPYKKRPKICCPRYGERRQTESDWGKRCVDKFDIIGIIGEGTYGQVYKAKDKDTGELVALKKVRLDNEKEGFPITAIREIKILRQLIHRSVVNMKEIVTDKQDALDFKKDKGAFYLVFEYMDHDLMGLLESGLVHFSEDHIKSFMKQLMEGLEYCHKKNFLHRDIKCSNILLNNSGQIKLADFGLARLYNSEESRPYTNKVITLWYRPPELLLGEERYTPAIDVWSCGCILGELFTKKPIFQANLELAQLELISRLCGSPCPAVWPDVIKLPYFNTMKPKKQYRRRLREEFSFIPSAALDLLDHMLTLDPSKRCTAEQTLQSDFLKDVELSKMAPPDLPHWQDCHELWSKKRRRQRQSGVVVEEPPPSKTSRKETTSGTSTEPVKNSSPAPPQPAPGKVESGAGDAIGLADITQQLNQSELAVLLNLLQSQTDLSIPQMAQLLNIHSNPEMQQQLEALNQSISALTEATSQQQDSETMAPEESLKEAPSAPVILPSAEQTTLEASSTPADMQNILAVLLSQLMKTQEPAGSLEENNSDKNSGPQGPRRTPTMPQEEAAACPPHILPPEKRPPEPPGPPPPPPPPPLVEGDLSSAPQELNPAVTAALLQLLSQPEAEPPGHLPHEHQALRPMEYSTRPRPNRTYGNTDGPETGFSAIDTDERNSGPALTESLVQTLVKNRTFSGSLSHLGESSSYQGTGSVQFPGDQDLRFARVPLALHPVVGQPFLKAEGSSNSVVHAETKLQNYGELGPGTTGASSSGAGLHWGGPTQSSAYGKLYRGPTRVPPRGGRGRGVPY
Sequence of CDK12 (O75909 whole entry partner): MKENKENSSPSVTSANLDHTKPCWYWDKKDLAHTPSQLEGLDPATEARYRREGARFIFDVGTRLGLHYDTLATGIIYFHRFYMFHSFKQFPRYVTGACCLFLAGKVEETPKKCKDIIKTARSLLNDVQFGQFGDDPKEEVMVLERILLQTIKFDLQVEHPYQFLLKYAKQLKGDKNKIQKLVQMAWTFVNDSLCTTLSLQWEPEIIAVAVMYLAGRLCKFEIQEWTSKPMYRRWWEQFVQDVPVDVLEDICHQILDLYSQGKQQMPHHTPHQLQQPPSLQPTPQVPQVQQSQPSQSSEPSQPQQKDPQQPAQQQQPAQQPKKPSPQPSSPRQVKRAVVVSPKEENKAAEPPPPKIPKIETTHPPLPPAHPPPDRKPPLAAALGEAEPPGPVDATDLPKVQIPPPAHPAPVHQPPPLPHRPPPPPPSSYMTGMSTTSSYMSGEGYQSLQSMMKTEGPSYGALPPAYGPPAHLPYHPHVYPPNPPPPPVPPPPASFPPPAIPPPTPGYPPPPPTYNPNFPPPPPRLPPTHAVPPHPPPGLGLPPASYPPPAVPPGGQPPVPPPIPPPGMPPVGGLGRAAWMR
Setting [6] is: Homo sapiens, HepG2, read-out: IC50 (µM) HePG- 2, MTT assay, HepG2 cells.

A word on the IC50: it is the midpoint of a concentration-inhibition curve.

Read-outs that look alike come from different tables or passages of the source.

In the case of `NS(=O)(=O)c1cccc(Nc2nccc(-n3c(C(F)(F)F)nc4ccccc43)n2)c1` [Compound 4i, 3-((4-(2-(trifluoromethyl)− 1H-benzo[d]imidazol-1-yl)pyrimidin-2-yl)amino)benzenesulfonamide], the IC50 was above 50 µM in experiment [1]; 48.3 ± 2.7 µM in experiment [2] (setting [6]); above 50 µM in experiment [3]; above 50 µM in experiment [4]; above 50 µM in experiment [5]; 1.09 ± 0.047 µM against CDK9. Further, at CDK12, the IC50 came to 0.365 ± 0.014 µM.

For the compound `Cc1cnc(Nc2cccc(S(N)(=O)=O)c2)nc1-n1c(C(F)(F)F)nc2ccccc21` [Compound 4k, 3-((5-methyl-4-(2-(trifluoromethyl)− 1H-benzo[d]imidazol-1-yl)pyrimidin-2-yl)amino)benzenesulfonamide], the IC50 in experiment [1] was 48.7 ± 2.7 µM; in experiment [2] (setting [6]) it was 34.1 ± 2.1 µM; in experiment [3], 42.8 ± 2.3 µM; in experiment [4], 39.8 ± 2.2 µM; in experiment [5], above 50 µM; against CDK9, 5.47 ± 0.236 µM. On CDK12, this compound showed an IC50 of 1.21 ± 0.047 µM.

Regarding `NS(=O)(=O)c1cccc(Nc2ncc(C(F)(F)F)c(-n3c(C4CC4)nc4ccccc43)n2)c1` [Compound 4 t, 3-((4-(2-cyclopropyl-1H-benzo[d]imidazol-1-yl)− 5-(trifluoromethyl)pyrimidin-2-yl)amino)benzenesulfonamide], the IC50 in experiment [1] is 38.8 ± 2.3 µM; in experiment [2] (setting [6]), 29.3 ± 1.9 µM; in experiment [3], 30.3 ± 1.9 µM; in experiment [4] it was 27.8 ± 1.8 µM; in experiment [5], above 50 µM; against CDK9 it was 0.121 ± 0.005 µM. For the same compound, inhibition on CDK12 was half-maximal at 0.533 ± 0.021 µM (IC50).

In the case of `COc1cccc2c1C(=O)c1c(O)c3c(c(O)c1C2=O)C[C@@](O)(C(=O)CO)C[C@@H]3O[C@H]1C[C@H](N)[C@H](O)[C@H](C)O1` [Doxorubicin, reference compound], the IC50 in experiment [2] (setting [6]) stood at 4.5 ± 0.2 µM.

Regarding `NS(=O)(=O)c1cccc(Nc2ncc(C(F)(F)F)c(-n3c(C(F)(F)F)nc4ccccc43)n2)c1` [Compound 4 l, 3-((5-(trifluoromethyl)− 4-(2-(trifluoromethyl)− 1H-benzo[d]imidazol-1-yl)pyrimidin-2-yl)amino)benzenesulfonamide], the half-inhibitory concentration (IC50) was above 50 µM in experiment [1]; above 50 µM in experiment [2] (setting [6]); above 50 µM in experiment [3]; above 50 µM in experiment [4]; 18.3 ± 1.3 µM in experiment [5]; 1.67 ± 0.072 µM against CDK9. This compound gave an IC50 on CDK12 of 0.899 ± 0.035 µM.

In the case of `NS(=O)(=O)c1cccc(Nc2ncc(F)c(-n3cnc4ccccc43)n2)c1` [Compound 4b, 3-((4-(1H-benzo[d]imidazol-1-yl)− 5-fluoropyrimidin-2-yl)amino)benzenesulfonamide], the half-inhibitory concentration (IC50) in experiment [1] was found to be 24.7 ± 1.7 µM; in experiment [2] (setting [6]) it was 22.3 ± 1.6 µM; in experiment [3], 17 ± 1.3 µM; in experiment [4], 14.2 ± 1.2 µM; in experiment [5], 46.7 ± 2.6 µM; against CDK9 it was 1.15 ± 0.05 µM. On CDK12, this compound returned an IC50 of 0.566 ± 0.022 µM.

For the compound `CC(C)c1nc2ccccc2n1-c1ccnc(Nc2cccc(S(N)(=O)=O)c2)n1` [Compound 4 m, 3-((4-(2-isopropyl-1H-benzo[d]imidazol-1-yl)pyrimidin-2-yl)amino)benzenesulfonamide], the IC50 in experiment [1] was 7.19 ± 0.5 µM; in experiment [2] (setting [6]) it was 3.56 ± 0.2 µM; in experiment [3], 6.39 ± 0.4 µM; in experiment [4], 2.18 ± 0.1 µM; in experiment [5], above 50 µM; against CDK9 it was 0.04 ± 0.002 µM. Besides, at CDK12, the IC50 is 0.06 ± 0.002 µM.

In the case of `Cc1cnc(Nc2cccc(S(N)(=O)=O)c2)nc1-n1cnc2ccccc21` [Compound 4c, 3-((4-(1H-benzo[d]imidazol-1-yl)− 5-methylpyrimidin-2-yl)amino)benzenesulfonamide], the IC50 in experiment [1] is above 50 µM; in experiment [2] (setting [6]) it was 44.4 ± 2.5 µM; in experiment [3], 49.8 ± 2.7 µM; in experiment [4] it was above 50 µM; in experiment [5] it was above 50 µM; against CDK9, 0.041 ± 0.002 µM. On CDK12, this compound showed a half-inhibitory concentration (IC50) of 0.14 ± 0.005 µM.

With `NS(=O)(=O)c1cccc(Nc2nccc(-n3cnc4ccccc43)n2)c1` [Compound 4a, 3-((4-(1H-benzo[d]imidazol-1-yl)pyrimidin-2-yl)amino)benzenesulfonamide], the IC50 was above 50 µM in experiment [1]; above 50 µM in experiment [2] (setting [6]); above 50 µM in experiment [3]; above 50 µM in experiment [4]; 25.4 ± 1.8 µM in experiment [5]; 0.396 ± 0.017 µM on CDK9. At CDK12, this compound returned an IC50 of 0.295 ± 0.011 µM.

As for `NS(=O)(=O)c1cccc(Nc2ncc(C(F)(F)F)c(-n3cnc4ccccc43)n2)c1` [Compound 4 d, 3-((4-(1H-benzo[d]imidazol-1-yl)− 5-(trifluoromethyl)pyrimidin-2-yl)amino)benzenesulfonamide], the half-maximal inhibitory concentration (IC50) in experiment [1] was above 50 µM; in experiment [2] (setting [6]), above 50 µM; in experiment [3], above 50 µM; in experiment [4], above 50 µM; in experiment [5] it was above 50 µM; against CDK9, 0.782 ± 0.034 µM. Moreover, the 50% inhibitory concentration (IC50) against CDK12 stood at 1.33 ± 0.052 µM.

Regarding `Cc1nc2ccccc2n1-c1nc(Nc2cccc(S(N)(=O)=O)c2)ncc1F` [Compound 4f, 3-((5-fluoro-4-(2-methyl-1H-benzo[d]imidazol-1-yl)pyrimidin-2-yl)amino)benzenesulfonamide], the IC50 amounted to 33.5 ± 2 µM in experiment [1]; 15.4 ± 1.2 µM in experiment [2] (setting [6]); 23.6 ± 1.7 µM in experiment [3]; 21.7 ± 1.7 µM in experiment [4]; 41.2 ± 2.5 µM in experiment [5]; 0.762 ± 0.033 µM against CDK9. The compound further returned a half-inhibitory concentration (IC50) against CDK12 of 1.14 ± 0.044 µM.

As for `Cc1nc2ccccc2n1-c1ccnc(Nc2cccc(S(N)(=O)=O)c2)n1` [Compound 4e, 3-((4-(2-methyl-1H-benzo[d]imidazol-1-yl)pyrimidin-2-yl)amino)benzenesulfonamide], the IC50 in experiment [1] is above 50 µM; in experiment [2] (setting [6]) it was above 50 µM; in experiment [3], above 50 µM; in experiment [4], above 50 µM; in experiment [5], 39 ± 2.3 µM; on CDK9 it was 0.409 ± 0.018 µM. Moreover, at CDK12, the IC50 worked out at 0.425 ± 0.017 µM.

In the case of `CC(C)c1nc2ccccc2n1-c1nc(Nc2cccc(S(N)(=O)=O)c2)ncc1C(F)(F)F` [Compound 4p, 3-((4-(2-isopropyl-1H-benzo[d]imidazol-1-yl)− 5-(trifluoromethyl)pyrimidin-2-yl)amino)benzenesulfonamide], the IC50 was above 50 µM in experiment [1]; above 50 µM in experiment [2] (setting [6]); above 50 µM in experiment [3]; above 50 µM in experiment [4]; 45.3 ± 2.7 µM in experiment [5]; 0.153 ± 0.007 µM on CDK9. Moreover, the IC50 on CDK12 was 0.664 ± 0.026 µM.

On to `CC(C)c1nc2ccccc2n1-c1nc(Nc2cccc(S(N)(=O)=O)c2)ncc1F` [Compound 4n, 3-((5-fluoro-4-(2-isopropyl-1H-benzo[d]imidazol-1-yl)pyrimidin-2-yl)amino)benzenesulfonamide], for which the IC50 in experiment [1] was 43.3 ± 2.5 µM; in experiment [2] (setting [6]), 19.8 µM; in experiment [2] (read-out: IC50 (µM) HePG- 2, MTT assay, HepG2 cells), 19.9 ± 1.4 µM; in experiment [3], 36.4 ± 2.1 µM; in experiment [4], 32.4 ± 2 µM; in experiment [5] it was 76.1 ± 3.9 µM. Further, the IC50 came to 0.392 ± 0.017 µM on CDK9 and 0.179 ± 0.007 µM against CDK12.

In the case of `Cc1cnc(Nc2cccc(S(N)(=O)=O)c2)nc1-n1c(C2CC2)nc2ccccc21` [Compound 4 s, 3-((4-(2-cyclopropyl-1H-benzo[d]imidazol-1-yl)− 5-methylpyrimidin-2-yl)amino)benzenesulfonamide], the IC50 is above 50 µM in experiment [1]; 38.1 ± 2.3 µM in experiment [2] (setting [6]); 47.2 ± 2.5 µM in experiment [3]; 45.7 ± 2.4 µM in experiment [4]; 28 ± 2 µM in experiment [5]; 0.408 ± 0.018 µM on CDK9. Also, at CDK12, the IC50 stood at 0.189 ± 0.007 µM.
